Assay results: patent publication US9090668B2, “Process for synthesizing cyclic peptide compound” (THE UNIVERSITY OF TOKYO, priority 2007, dated 2015)
*1 amine or outer side, *2 acyl side, *3 side chain or, on linkers, in order; H or OH if unused. Where a SMILES comes first, the peptide text is derived from it. Bridges are numbered along the chain shown (N, C = ends). [ ]: non-standard residue; d: D form. The star is where a group is joined. hMet = CSCCC[C@H](N)C(=O)O; Orn = NCCC[C@H](N)C(=O)O; Dab = NCC[C@H](N)C(=O)O; X1 = O=C(C[*:2])[*:1]; For = O=C*

Tests used:
proteinase K = proteinase K (Parengyodontium album, UniProt P06873); experiment: Protease resistance of peptides against proteinase K, analysed by MALDI-MS; assay type: in vitro ADME; conditions: 5 μg/ml proteinase K, 37° C., 1 hour
proteinase K, sequence (P06873 106-384, species assumed): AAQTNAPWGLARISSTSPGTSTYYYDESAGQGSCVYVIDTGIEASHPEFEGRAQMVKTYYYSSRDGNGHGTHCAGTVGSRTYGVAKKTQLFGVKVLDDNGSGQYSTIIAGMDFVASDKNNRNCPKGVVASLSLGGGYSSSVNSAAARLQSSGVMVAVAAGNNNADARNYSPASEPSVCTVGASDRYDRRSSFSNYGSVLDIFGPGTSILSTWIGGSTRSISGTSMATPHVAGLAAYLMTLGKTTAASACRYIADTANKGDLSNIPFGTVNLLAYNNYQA
Protocol: Translationally synthesized peptides and purchased Urotensin II peptides were reacted in 5 μg/ml of a proteinase K solution at 37° C. for 1 hour in the presence of, or in the absence of, 1 mM DTT.

Urotensin II receptor = molecular target: T1, Urotensin II receptor (Homo sapiens, UniProt Q9UKP6); experiment: Calcium mobilization measurement in HEK-UTR cells (Fluo-4-AM fluorescence); assay type: cell-based; conditions: HEK-UTR cells (HEK cells expressing an Urotensin II receptor)
T1 construct: expressed in transfected cells; host or cells: HEK cells (HEK-UTR)
T1 sequence (Q9UKP6 1-389): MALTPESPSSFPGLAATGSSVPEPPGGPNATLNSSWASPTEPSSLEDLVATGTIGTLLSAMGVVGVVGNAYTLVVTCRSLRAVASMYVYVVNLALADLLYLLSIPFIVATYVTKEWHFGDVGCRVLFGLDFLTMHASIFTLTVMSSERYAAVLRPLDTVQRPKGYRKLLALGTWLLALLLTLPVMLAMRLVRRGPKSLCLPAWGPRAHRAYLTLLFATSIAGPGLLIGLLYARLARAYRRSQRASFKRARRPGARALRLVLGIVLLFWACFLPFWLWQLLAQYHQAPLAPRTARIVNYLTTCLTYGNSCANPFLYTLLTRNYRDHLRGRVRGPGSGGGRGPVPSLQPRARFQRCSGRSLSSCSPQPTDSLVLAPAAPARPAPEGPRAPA
Protocol: FIG. 10 illustrates calcium mobilization in cells by addition of peptides using a fluorescent reagent. 2×10^5 HEK-UTR cells (HEK cells expressing an Urotensin II receptor) were seeded into a 96 well plate. After 12-16 hours, the cells were incubated in 1 μM Fluo-4-AM (Dojindo Laboratories) for 1 hour. After the incubation was completed, the fluorescent reagent was removed, and 90 μL of an assay buffer (Hanks Balanced Salts Solution (HBSS), 10 mM HEPES, 200 μM of CaCl2, 0.1% BSA, and 2.5 mM probenecid) was added. Then, 10 μL of peptides dissolved in an assay buffer was added, and changes in an intensity of fluorescent light were measured by a microplate reader. The peptides were prepared by purifying the translation product by Zip-tip (Millipore) and distilling off the elute under reduced pressure.

Compound | degradation by proteinase K (proteinase K) | degradation by proteinase K after change into linear form by DTT (proteinase K; in the presence of 1 mM DTT) | calcium mobilization in cells (change in fluorescence intensity) (Urotensin II receptor)
CC(C)[C@H](NC(=O)[C@@H]1CSSC[C@H](NC(=O)[C@H](CC(=O)O)NC(=O)[C@@H]2CCCN2C(=O)[C@@H](NC(=O)[C@@H](N)CCC(=O)O)[C@@H](C)O)C(=O)N[C@@H](Cc2ccccc2)C(=O)N[C@@H](Cc2c[nH]c3ccccc23)C(=O)N[C@@H](CCCCN)C(=O)N[C@@H](Cc2ccc(O)cc2)C(=O)N1)C(=O)O [Urotensin II] | not degraded | decomposed | –
CSCCC[C@H](NC=O)C(=O)N1CCC[C@H]1C(=O)N[C@@H](CC(=O)O)C(=O)N[C@H]1CCNC(=O)CSC[C@@H](C(=O)N[C@H](C(=O)O)C(C)C)NC(=O)[C@H](Cc2ccc(O)cc2)NC(=O)[C@H](CCCN)NC(=O)[C@H](Cc2c[nH]c3ccccc23)NC(=O)[C@H](Cc2ccccc2)NC1=O [YS9] (For-[hMet]PD[Dab]FW[Orn]YCV-OH; linker 4-9 via X1) | not degraded | – | calcium mobilization in the cells was observed
CSCC[C@H](NC=O)C(=O)N1CCC[C@H]1C(=O)N[C@@H](CC(=O)O)C(=O)N[C@@H](CC(C)C)C(=O)N[C@@H](Cc1ccccc1)C(=O)N[C@@H](Cc1c[nH]c2ccccc12)C(=O)N[C@@H](CCCCN)C(=O)N[C@@H](Cc1ccc(O)cc1)C(=O)N[C@@H](CS)C(=O)N[C@H](C(=O)O)C(C)C [YS10] (For-MPDLFWKYCV-OH; N-terminus and C-terminus assumed) | degraded | – | –
